According to PMC9974481, “Structure of SpoT reveals evolutionary tuning of catalysis via conformational constraint” (Nature Chemical Biology, 2022):

Columns and labels:
[1] = target: T1, SpoTAb (full-length A. baumannii SpoT) (Acinetobacter baumannii, UniProt A0A0D5YCY1); test: 3H-ppGpp hydrolysis, TLC and scintillation counting; type: biochemical; settings: 1 mM MnCl2, 5 mM Mg2+, HEPES:Polymix pH 7.5, 37 °C, 10-600 μM substrate; labelled compound
T1 construct: gene ABUW_0309; full-length, domains HD, pseudo-SYNTH, Core, TGS, HEL, ZFD, RRM; pET28b His-TEV tag cleaved, E. coli BL21(DE3); monomer, theoretical 80 kDa; locus tag belongs to AB5075, expression gene amplified from AB19606; PDB entries not assigned in text (one is the metal-free NTD)

[2] = target: T1, SpoTAb (full-length A. baumannii SpoT); test: X-ray crystallography, […] Å; type: binding; settings: crystal soaked with 20 mM ppGpp at 4 °C; Mn2+ in hydrolase active site; PDB entry is 7QPR or 7QPS, not assigned in text

Nc1nc2c(ncn2[C@@H]2O[C@H](COP(=O)(O)OP(=O)(O)O)[C@@H](OP(=O)(O)OP(=O)(O)O)[C@H]2O)c(=O)[nH]1 [ppGpp]
KM [1]: SpoTAb Michaelis constant (KM) and maximum reaction velocity (Vmax) of ^3H-ppGpp hydrolysis were determined
X-ray crystallography, 2.5 Å [2]: X-ray structure of full-length catalytically active SpoTAb bound to ppGpp
